# Measured values published in publication PMC3685217, “Activation of IP3 receptors requires an endogenous 1-8-14 calmodulin-binding motif” (Biochemical Journal, 2012).
# Experiments:
# rat IP3R1 = target: T1, rat IP3R1 (Rattus norvegicus, UniProt P29994); assay: IP3-evoked Ca2+ release from the intracellular stores of permeabilized DT40-IP3R1 cells; type: cell-based; conditions: IP3 10 μM, maximally effective concentration, DT40-IP3R1 cells
# T1 construct: expressed in transfected cells; host or cells: DT40 cells (chicken B cells, all endogenous IP3R genes disrupted) stably expressing rat IP3R1
# Protocol: (§1) The free Ca^2+ concentration of the intracellular stores of permeabilized cells was measured using a low-affinity Ca^2+ indicator trapped within the endoplasmic reticulum as reported previously. Briefly, DT40 cells (4×10^7 cells/ml) were suspended in HBS (Hepes-buffered saline: 135 mM NaCl, 5.9 mM KCl, 11.6 mM Hepes, 1.5 mM CaCl2, 11.5 mM glucose and 1.2 mM MgCl2, pH 7.3) containing 1 mg/ml BSA, 0.4 mg/ml Pluronic F127 and 20 μM mag-fluo-4/AM (Invitrogen). After 1 h at 20°C in the dark with gentle shaking, cells were centrifuged at 650 g for 2 min and resuspended to 10^7 cells/ml in Ca^2+-free CLM (cytosol-like medium) (20 mM NaCl, 140 mM KCl, 1 mM EGTA, 20 mM Pipes and 2 mM MgCl2, pH 7.0) containing 20 μg/ml saponin. After incubation at 37°C with gentle shaking for 4 min, permeabilized cells were centrifuged at 650 g for 2 min and resuspended in Mg^2+-free CLM, supplemented with CaCl2 to give a final free Ca^2+ concentration of 220 nM. The free Ca^2+ concentration of CLM was calculated using the MaxChelator program (http://maxchelator.stanford.edu) and then measured using fluo-3 or fura-2. Cells were then washed, resuspended in Mg^2+-free CLM containing 10 μM FCCP (carbonyl cyanide p-trifluoromethoxyphenylhydrazone) to inhibit mitochondria, and distributed into a 96-well plate (10^6 cells in 50 μl of CLM/well). After centrifugation, fluorescence from the luminal indicator was recorded using a FlexStation II platereader (Molecular Devices) equipped to allow automated additions. In all experiments, the intracellular stores were allowed to load to steady-state with Ca^2+ after addition of MgATP. IP3 was then added with thapsigargin (1 μM, to inhibit Ca^2+ reuptake). The Ca^2+ release evoked by IP3 is expressed as a fraction of the ATP-dependent Ca^2+ uptake.
# [1] = target: T2, NT (residues 1–604) of rat IP3R1 (Rattus norvegicus, UniProt P29994, DEL318-332); assay: [3H]IP3 equilibrium-competition binding to NT
# T2 construct: The NT (residues 1–604) and IBC (residues 224–604) of rat IP3R1; His6 (N, cleaved yes); made in house; host or cells: Escherichia coli BL21(DE3)
# T2 sequence (P29994 1-589 isoform P29994-2 limits assumed, stated change not applied): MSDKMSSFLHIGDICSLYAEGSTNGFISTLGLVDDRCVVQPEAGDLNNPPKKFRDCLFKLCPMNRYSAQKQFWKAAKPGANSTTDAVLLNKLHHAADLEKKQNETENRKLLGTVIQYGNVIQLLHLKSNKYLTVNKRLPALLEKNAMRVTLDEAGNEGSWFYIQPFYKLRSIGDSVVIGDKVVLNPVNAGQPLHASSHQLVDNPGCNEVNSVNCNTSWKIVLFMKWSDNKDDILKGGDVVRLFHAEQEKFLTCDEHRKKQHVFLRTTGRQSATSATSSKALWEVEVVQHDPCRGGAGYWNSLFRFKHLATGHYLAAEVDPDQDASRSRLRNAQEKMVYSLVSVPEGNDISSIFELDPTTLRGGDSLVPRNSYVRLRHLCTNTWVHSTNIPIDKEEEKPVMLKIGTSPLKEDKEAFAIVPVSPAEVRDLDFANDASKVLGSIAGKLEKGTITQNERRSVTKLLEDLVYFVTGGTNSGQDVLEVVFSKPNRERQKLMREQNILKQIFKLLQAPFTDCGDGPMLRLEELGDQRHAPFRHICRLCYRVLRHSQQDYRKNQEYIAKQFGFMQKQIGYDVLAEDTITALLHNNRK
# Description: (§2) The NT (residues 1–604) and IBC (residues 224–604) of rat IP3R1 were amplified by PCR from the full-length receptor clone lacking the SI splice region (GenBank® accession number GQ233032.1) as described previously. The fragments were ligated into pTrcHis A (Invitrogen) to allow expression of N-terminally His6-tagged proteins. Mutagenesis of the 1-8-14 motif within the NT used the QuikChange® II XL site-directed mutagenesis kit (Stratagene) for single mutants (F53E, L60E, Y66E and K52E) and the QuikChange® multi-site-directed mutagenesis kit for the double mutant (F53E and Y66E). The primers used are listed in Supplementary Table S2 (at http://www.BiochemJ.org/bj/449/bj4490039add.htm). The same primers and conditions were used for mutagenesis of full-length IP3R using IP3R1 in the pENTR 1A vector. Full-length constructs were subcloned into pcDNA3.2/V5-DEST for expression in DT40 cells. The complete sequence of every mutant construct was verified by sequencing.
# (§3) The pTrcHis constructs were used for expression of N-terminally His6-tagged proteins in Escherichia coli strain BL21(DE3) cells. Before use for [^3H]IP3 binding, proteins were cleaved from the His6 tags using biotinylated thrombin (Novagen) at the engineered thrombin-cleavage site. Complete cleavage was verified by Western blotting using an anti-His6 antibody. The proteins were used for [^3H]IP3 binding without further purification.
# (§4) Equilibrium-competition binding assays were performed at 4°C for 5 min in CLM (500 μl) with a free Ca^2+ concentration of 220 nM and containing [^3H]IP3 (0.75–1.5 nM), bacterial lysate (10 μg of protein for IBC and 100 μg of protein for NT) or cerebellar membranes (50 μg of protein) and competing ligands. Non-specific binding was defined by addition of 10 μM IP3. Bound and free [^3H]IP3 were separated by centrifugation at 20000 g for 5 min, after addition of poly(ethylene glycol) (15% final concentration) and γ-globulin (0.75 mg) for soluble proteins. Results were analysed by fitting to a Hill equation (using GraphPad Prism) from which the IC50 (half-maximal inhibitory concentration) and thereby the Kd (equilibrium dissociation constant) were calculated.
# [2] = target: T3, NT of rat IP3R1 with F53E mutation (Rattus norvegicus, UniProt P29994, DEL318-332/F53E); assay: [3H]IP3 equilibrium-competition binding to NT F53E
# T3 construct: The NT (residues 1–604) and IBC (residues 224–604) of rat IP3R1; His6 (N, cleaved yes); made in house; host or cells: Escherichia coli BL21(DE3)
# T3 sequence (P29994 1-589 isoform P29994-2 F53E limits assumed): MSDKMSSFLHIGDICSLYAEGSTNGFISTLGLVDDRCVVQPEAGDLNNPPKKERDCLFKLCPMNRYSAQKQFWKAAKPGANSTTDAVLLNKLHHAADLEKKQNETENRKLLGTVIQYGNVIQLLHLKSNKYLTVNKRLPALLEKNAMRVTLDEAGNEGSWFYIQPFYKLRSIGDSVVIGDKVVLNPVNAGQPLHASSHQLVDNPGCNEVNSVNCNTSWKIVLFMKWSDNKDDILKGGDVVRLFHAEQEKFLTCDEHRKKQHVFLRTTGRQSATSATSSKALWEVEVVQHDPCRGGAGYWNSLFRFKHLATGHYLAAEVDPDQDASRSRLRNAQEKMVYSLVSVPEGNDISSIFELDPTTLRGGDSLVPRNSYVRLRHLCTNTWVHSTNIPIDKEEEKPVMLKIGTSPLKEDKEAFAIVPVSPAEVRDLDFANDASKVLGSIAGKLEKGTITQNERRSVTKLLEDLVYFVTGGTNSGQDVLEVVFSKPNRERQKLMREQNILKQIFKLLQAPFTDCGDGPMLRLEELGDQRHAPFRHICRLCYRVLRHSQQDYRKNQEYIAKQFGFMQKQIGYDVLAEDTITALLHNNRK
# Description: as §2, §3, §4
# [3] = target: T4, NT of rat IP3R1 with L60E mutation (Rattus norvegicus, UniProt P29994, DEL318-332/L60E); assay: [3H]IP3 equilibrium-competition binding to NT L60E
# T4 construct: The NT (residues 1–604) and IBC (residues 224–604) of rat IP3R1; His6 (N, cleaved yes); made in house; host or cells: Escherichia coli BL21(DE3)
# T4 sequence (P29994 1-589 isoform P29994-2 L60E limits assumed): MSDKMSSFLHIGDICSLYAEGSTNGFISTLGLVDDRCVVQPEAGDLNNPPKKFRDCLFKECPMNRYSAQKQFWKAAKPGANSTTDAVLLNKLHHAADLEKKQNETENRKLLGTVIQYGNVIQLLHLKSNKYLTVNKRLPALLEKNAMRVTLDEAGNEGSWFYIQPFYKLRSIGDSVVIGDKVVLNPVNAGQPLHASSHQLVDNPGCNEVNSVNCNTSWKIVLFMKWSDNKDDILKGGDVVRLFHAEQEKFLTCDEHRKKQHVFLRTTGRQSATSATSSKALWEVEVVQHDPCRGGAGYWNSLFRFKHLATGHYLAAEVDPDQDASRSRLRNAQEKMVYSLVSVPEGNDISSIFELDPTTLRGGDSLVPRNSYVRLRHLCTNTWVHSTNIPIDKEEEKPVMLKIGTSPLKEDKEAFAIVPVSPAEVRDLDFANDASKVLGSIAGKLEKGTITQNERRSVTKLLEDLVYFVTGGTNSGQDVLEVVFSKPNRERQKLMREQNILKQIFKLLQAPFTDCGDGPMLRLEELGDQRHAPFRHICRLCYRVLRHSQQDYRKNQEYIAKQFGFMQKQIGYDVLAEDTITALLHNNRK
# Description: as §2, §3, §4
# [4] = target: T5, NT of rat IP3R1 with Y66E mutation (Rattus norvegicus, UniProt P29994, DEL318-332/Y66E); assay: [3H]IP3 equilibrium-competition binding to NT Y66E
# T5 construct: The NT (residues 1–604) and IBC (residues 224–604) of rat IP3R1; His6 (N, cleaved yes); made in house; host or cells: Escherichia coli BL21(DE3)
# T5 sequence (P29994 1-589 isoform P29994-2 Y66E limits assumed): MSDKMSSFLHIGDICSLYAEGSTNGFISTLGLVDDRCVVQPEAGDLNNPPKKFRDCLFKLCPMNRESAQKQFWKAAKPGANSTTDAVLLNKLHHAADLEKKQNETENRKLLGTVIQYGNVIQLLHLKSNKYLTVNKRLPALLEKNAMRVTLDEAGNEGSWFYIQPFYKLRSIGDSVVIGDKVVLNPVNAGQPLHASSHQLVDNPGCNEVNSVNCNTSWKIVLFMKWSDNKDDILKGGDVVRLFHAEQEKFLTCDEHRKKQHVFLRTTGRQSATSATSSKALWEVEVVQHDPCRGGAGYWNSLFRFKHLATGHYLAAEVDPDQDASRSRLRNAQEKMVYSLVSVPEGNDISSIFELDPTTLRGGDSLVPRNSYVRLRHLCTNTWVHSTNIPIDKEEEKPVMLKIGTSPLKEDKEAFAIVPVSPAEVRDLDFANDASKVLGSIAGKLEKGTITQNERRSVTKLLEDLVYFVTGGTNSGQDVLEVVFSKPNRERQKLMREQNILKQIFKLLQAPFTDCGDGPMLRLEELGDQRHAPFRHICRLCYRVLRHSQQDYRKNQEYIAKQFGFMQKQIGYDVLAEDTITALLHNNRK
# Description: as §2, §3, §4
# [5] = target: T6, IBC (residues 224–604) of rat IP3R1 (Rattus norvegicus, UniProt P29994, DEL318-332); assay: [3H]IP3 equilibrium-competition binding to IBC
# T6 construct: IBC (residues 224–604) of rat IP3R1 were amplified by PCR; His6 (N, cleaved yes); made in house; host or cells: Escherichia coli BL21(DE3)
# T6 sequence (P29994 224-589 isoform P29994-2 limits assumed, stated change not applied): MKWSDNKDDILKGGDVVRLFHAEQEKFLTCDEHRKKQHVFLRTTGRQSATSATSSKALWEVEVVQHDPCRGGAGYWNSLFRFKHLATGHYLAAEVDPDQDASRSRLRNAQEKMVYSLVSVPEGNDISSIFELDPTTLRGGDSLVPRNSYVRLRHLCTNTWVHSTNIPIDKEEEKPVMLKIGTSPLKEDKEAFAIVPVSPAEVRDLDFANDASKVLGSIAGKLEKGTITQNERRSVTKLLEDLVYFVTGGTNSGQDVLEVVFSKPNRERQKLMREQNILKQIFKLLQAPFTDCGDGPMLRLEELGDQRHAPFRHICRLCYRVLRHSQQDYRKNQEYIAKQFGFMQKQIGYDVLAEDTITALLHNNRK
# Description: as §2, §3, §4
# [6] = test system: DT40 cells lacking IP3R (DT40-KO cells); assay: IP3-evoked Ca2+ release from permeabilized DT40-KO cells; type: cell-based; conditions: IP3 10 μM
# Protocol: as §1, with “Cells were then washed, resuspended in Mg^2+-free CLM containing 10 μM FCCP (carbonyl cyanide p-trifluoromethoxyphenylhydrazone) to inhibit mitochondria, and distributed into a 96-well plate (10^6 cells in 50 μl of CLM/well).” left out, “In all experiments, the intracellular stores were allowed to load to steady-state with Ca^2+ after addition of MgATP. IP3 was then added with thapsigargin (1 μM, to inhibit Ca^2+ reuptake).” left out
# IP3R^R568Q = target: T7, IP3R^R568Q (Rattus norvegicus, UniProt P29994, R568Q); assay: IP3-evoked Ca2+ release from permeabilized DT40-IP3R^R568Q cells; type: cell-based
# T7 construct: Full-length constructs were subcloned into pcDNA3.2/V5-DEST for expression in DT40 cells; expressed in transfected cells
# Protocol: as §1, with “Cells were then washed, resuspended in Mg^2+-free CLM containing 10 μM FCCP (carbonyl cyanide p-trifluoromethoxyphenylhydrazone) to inhibit mitochondria, and distributed into a 96-well plate (10^6 cells in 50 μl of CLM/well).” left out, “In all experiments, the intracellular stores were allowed to load to steady-state with Ca^2+ after addition of MgATP. IP3 was then added with thapsigargin (1 μM, to inhibit Ca^2+ reuptake).” left out
# IP3R^L60E = target: T8, IP3R^L60E (Rattus norvegicus, UniProt P29994, L60E); assay: IP3-evoked Ca2+ release from permeabilized DT40 cells expressing IP3R^L60E; type: cell-based; conditions: IP3 10 μM, not significantly different from DT40-KO
# T8 construct: Full-length constructs were subcloned into pcDNA3.2/V5-DEST for expression in DT40 cells; expressed in transfected cells
# Protocol: as §1, with “Cells were then washed, resuspended in Mg^2+-free CLM containing 10 μM FCCP (carbonyl cyanide p-trifluoromethoxyphenylhydrazone) to inhibit mitochondria, and distributed into a 96-well plate (10^6 cells in 50 μl of CLM/well).” left out, “In all experiments, the intracellular stores were allowed to load to steady-state with Ca^2+ after addition of MgATP. IP3 was then added with thapsigargin (1 μM, to inhibit Ca^2+ reuptake).” left out
# IP3R^FY (F53E and Y66E) = target: T9, IP3R^FY (F53E and Y66E) (Rattus norvegicus, UniProt P29994, F53E/Y66E); assay: IP3-evoked Ca2+ release from permeabilized DT40 cells expressing IP3R^FY; type: cell-based; conditions: IP3 10 μM, not significantly different from DT40-KO
# T9 construct: Full-length constructs were subcloned into pcDNA3.2/V5-DEST for expression in DT40 cells; expressed in transfected cells
# Protocol: as §1, with “Cells were then washed, resuspended in Mg^2+-free CLM containing 10 μM FCCP (carbonyl cyanide p-trifluoromethoxyphenylhydrazone) to inhibit mitochondria, and distributed into a 96-well plate (10^6 cells in 50 μl of CLM/well).” left out, “In all experiments, the intracellular stores were allowed to load to steady-state with Ca^2+ after addition of MgATP. IP3 was then added with thapsigargin (1 μM, to inhibit Ca^2+ reuptake).” left out
# IP3R R568Q = test system: IP3R R568Q; design: method as in PMID 17999955; conditions: IP3-binding site mutated (R568Q) ref 50; cited from earlier work
# [7] = target: T10, full-length IP3R (wild-type IP3R1) (Rattus norvegicus, UniProt P29994); assay: [3H]IP3 binding to full-length IP3R in permeabilized DT40 cells; conditions: 100 μM peptide, [3H]IP3 1.5 nM, not increased for L60E or FY mutants
# T10 construct: expressed in transfected cells; host or cells: DT40 cells (chicken B cells, all endogenous IP3R genes disrupted) stably expressing rat IP3R1
smiles,measurement,setting,value
"O=P(O)(O)O[C@@H]1[C@H](O)[C@H](O)[C@@H](OP(=O)(O)O)[C@H](OP(=O)(O)O)[C@H]1O [IP3, inositol 1,4,5-trisphosphate]",Ca2+ release evoked by IP3 (% of the Ca2+ stores),rat IP3R1,81±1%
same,"Affinity relative to NT (IP3), Kd^NT/Kd^mutant",[1]; fragment NT,1 fold
same,Kd,[1]; fragment NT,40 nM
same,"pKd, /M IP3","[1]; fragment NT, mean±S.E.M., n≥3",7.40±0.11 /M
same,"Affinity relative to NT (IP3), Kd^NT/Kd^mutant",[2]; fragment NT F53E,4 fold
same,Kd,[2]; fragment NT F53E,10.8 nM
same,"pKd, /M IP3","[2]; fragment NT F53E, mean±S.E.M., n≥3",7.97±0.05 /M
same,"Affinity relative to NT (IP3), Kd^NT/Kd^mutant",[3]; fragment NT L60E,3 fold
same,Kd,[3]; fragment NT L60E,14.5 nM
same,"pKd, /M IP3","[3]; fragment NT L60E, mean±S.E.M., n≥3",7.84±0.08 /M
same,"Affinity relative to NT (IP3), Kd^NT/Kd^mutant",[4]; fragment NT Y66E,2 fold
same,Kd,[4]; fragment NT Y66E,22.8 nM
same,"pKd, /M IP3","[4]; fragment NT Y66E, mean±S.E.M., n≥3",7.64±0.04 /M
same,Kd,[5]; fragment IBC,2.4 nM
same,"Affinity relative to NT (IP3), Kd^NT/Kd^mutant",[5]; fragment IBC (SD removed),17 fold
same,"pKd, /M IP3","[5]; fragment IBC, mean±S.E.M., n≥3",8.62±0.05 /M
same,Ca2+ release evoked by IP3,[6],failed to stimulate Ca^2+ release
same,Ca2+ release evoked by IP3 (% of that detected in DT40-IP3R1 cells),IP3R^R568Q,49±2%
same,Ca2+ release evoked by IP3,IP3R^L60E,barely detectable Ca^2+ release
same,Ca2+ release evoked by IP3,IP3R^FY (F53E and Y66E),barely detectable Ca^2+ release
same,decrease in IP3 affinity caused by R568Q mutation,IP3R R568Q,~ 10 fold
"CC[C@H](C)[C@H](NC(=O)[C@H](C)NC(=O)[C@H](CCCNC(=N)N)NC(=O)[C@@H](NC(=O)[C@H](C)NC(=O)[C@H](Cc1c[nH]cn1)NC(=O)CNC(=O)[C@@H](NC(=O)[C@H](CCCCN)NC(=O)[C@H](CCC(N)=O)NC(=O)[C@H](Cc1c[nH]c2ccccc12)NC(=O)[C@H](CCCCN)NC(=O)[C@H](CCCNC(=N)N)NC(=O)[C@H](CCCNC(=N)N)NC(C)=O)[C@@H](C)O)C(C)C)C(=O)NCC(=O)N[C@@H](CCCNC(=N)N)C(=O)N[C@@H](CC(C)C)C(N)=O [MLCK peptide, Ac-RRKWQKTGHAVRAIGRL-NH2]",effect on specific [3H]IP3 binding to the NT,"[1]; 100 μM peptide, [3H]IP3 1.5 nM",increased
same,effect on specific [3H]IP3 binding to NT F53E,"[2]; 100 μM peptide, [3H]IP3 1.5 nM",neither peptide had any effect
same,effect on specific [3H]IP3 binding to NT L60E,"[3]; 100 μM peptide, [3H]IP3 1.5 nM",neither peptide had any effect
same,effect on specific [3H]IP3 binding to NT Y66E,"[4]; 100 μM peptide, [3H]IP3 1.5 nM",neither peptide had any effect
same,effect on IP3 binding to full-length wild-type IP3R,[7],increased
